Patent US9725462B2, “Pyridopyrimidine derivatives as protein kinase inhibitors” (Merck Patent GmbH, priority 2012, dated 2017)

Target: T1, SYK (Homo sapiens, UniProt P43405)
T1 construct: 2.5 nM SYK, 400 nM Biotin-Aha-Aha-KEDPDYEWPSAKK
Assay: SYK Flash Plate Assay (enzyme assay)
Assay type: biochemical
Conditions: Syk inhibition
Description: The following abbreviations refer respectively to the definitions below: • aq (aqueous), h (hour), g (gram), L (liter), mg (milligram), MHz (Megahertz), min. (minute), mm (millimeter), mmol (millimole), mM (millimolar), m.p. (melting point), eq (equivalent), mL (milliliter), L (microliter), ACN (acetonitrile), AcOH (acetic acid), CDCl3 (deuterated chloroform), CD3OD (deuterated methanol), CH3CN (acetonitrile), c-hex (cyclohexane), DCC (dicyclohexyl carbodiimide), DCM (dichloromethane), DIC (diisopropyl carbodiimide), DIEA (diisopropylethyl-amine), DMF (dimethylformamide), DMSO (dimethylsulfoxide), DMSO-d6 (deuterated dimethylsulfoxide), EDC (1-(3-dimethyl-amino-propyl)-3-ethylcarbodiimide), ESI (Electro-spray ionization), EtOAc (ethyl acetate), Et2O (diethyl ether), EtOH (ethanol), HATU (dimethylamino-([1,2,3]triazolo[4,5-b]pyridin-3-yloxy)-methylene]-dimethyl-ammonium hexafluorophosphate), HPLC (High Performance Liquid Chromatography), i-PrOH (2-propanol), K2CO3 (potassium carbonate), LC (Liquid Chromatography), MeOH (methanol), MgSO4 (magnesium sulfate), MS (mass spectrometry), MTBE (Methyl tert-butyl ether), NaHCO3 (sodium bicarbonate), NaBH4 (sodium borohydride), NMM (N-methyl morpholine), NMR (Nuclear Magnetic Resonance), PyBOP (benzotriazole-1-yl-oxy-tris-pyrrolidino-phosphonium hexafluorophosphate), RT (room temperature), Rt (retention time), SPE (solid phase extraction), TBTU (2-(1-H-benzotriazole-1-yl)-1,1,3,3-tetramethyluromium tetrafluoro borate), TEA (triethylamine), TFA (trifluoroacetic acid), THF (tetrahydrofuran), TLC (Thin Layer Chromatography), UV (Ultraviolet). Description of the In Vitro Assays SYK Flash Plate Assay
The kinase assay is performed either as 384-well Flashplate assay (for e.g. Topcount measurement) or as 384-well Image-Flashplate assay (for LEADseeker measurement).
2.5 nM SYK, 400 nM Biotin-Aha-Aha-KEDPDYEWPSAKK
and 10 μM ATP (spiked with 0.3 μCi 33P-ATP/well) are incubated in a total volume of 50 μl (60 mM Hepes, 10 mM MgCl2, 1.2 mM Dithiothreitol, 0.02% Brij35, 0.1% BSA, pH 7.5) with or without test compound for 1 hours at 30° C. The reaction is stopped with 25 μl 200 mM EDTA. After 30 Min at 30° C. the liquid is removed and each well washed thrice with 100 μl 0.9% sodium chloride solution. Non-specific reaction is determined in presence of 0.1 μM Staurosporine. Radioactivity is measured with Topcount (when using Flashplates) or with LEADseeker (when using Image-Flashplates) respectively. Results (e.g. IC50-values) are calculated with program tools provided by the IT-department (e.g. Symyx Assay Explorer, Genedata Screener). In Vivo Assays CIA

Structure (SMILES) | IC50
Cc1cccc(-c2cnc(N)c3cnc(N[C@H]4CCCC[C@H]4N)nc23)c1 (single isomer, unassigned) [Compound A21, N2-((cis)-2-Amino-cyclohexyl)-8-m-tolyl-pyrido[4,3-d]pyrimidine-2,5-diamine] | 1 to 50 µM
Cc1cccc(-c2cncc3cnc(N[C@H](CC(C)C)C(N)=O)nc23)c1 [Compound A32, (R)-4-Methyl-2-(8-m-tolyl-pyrido[4,3-d]pyrimidin-2-ylamino)-pentanoic acid amide] | 1 to 50 µM
N[C@@H]1CCCC[C@@H]1Nc1ncc2cncc(-c3c[nH]c4cc(C(F)(F)F)ccc34)c2n1 (stereo in doubt) [Compound A41, (1S,2R)-N-[8-(6-Trifluoromethyl-1H-indol-3-yl)-pyrido[4,3-d]pyrimidin-2-yl]-cyclohexane-1,2-diamine] | < 0.1 µM
Cc1nn(C)cc1-c1cncc2cnc(N[C@@H]3CCCC[C@@H]3N)nc12 (relative stereo) [Compound A25, cis-N-[8-(1,3-Dimethyl-1H-pyrazol-4-yl)-pyrido[4,3-d]pyrimidin-2-yl]-cyclohexane-1,2-diamine] | 1 to 50 µM
CC(C)n1cc(-c2cncc3cnc(N[C@@H]4CCCC[C@@H]4N)nc23)cn1 [Compound A26, (1S,2R)-[8-(1-Isopropyl-1H-pyrazol-4-yl)-pyrido[4,3-d]pyrimidin-2-yl]-cyclohexane-1,2-diamine] | 1 to 50 µM
Cn1cc(-c2cnc(N)c3cnc(N4CCC(CO)CC4)nc23)cn1 [Compound A5, {1-[5-Amino-8-(1-methyl-1H-pyrazol-4-yl)-pyrido[4,3-d]pyrimidin-2-yl]-piperidin-4-yl}-methanol] | 1 to 50 µM
N#Cc1ccc2[nH]c(-c3cnc(N)c4cnc(N[C@@H]5CCCC[C@@H]5N)nc34)cc2c1 (relative stereo) [Compound A23, 2-[5-Amino-2-((cis)-2-amino-cyclohexylamino)-pyrido[4,3-d]-pyrimidin-8-yl]-1H-indole-5-carbonitrile] | 0.1 to 1 µM
N[C@@H]1CCCC[C@@H]1Nc1ncc2cncc(-c3c[nH]c4ccc(F)cc34)c2n1 (stereo in doubt) [Compound A46, (1S,2R)-N-[8-(5-Fluoro-1H-indol-3-yl)-pyrido[4,3-d]pyrimidin-2-yl]-cyclohexane-1,2-diamine] | < 0.1 µM
Nc1ncc(-c2cccc(-n3nccn3)c2)c2nc(N[C@H]3CCCC[C@H]3N)ncc12 (relative stereo) [Compound A3, N2-(cis-2-Amino-cyclohexyl)-8-(3-[1,2,3]triazol-2-yl-phenyl)-pyrido[4,3-d]pyrimidine-2,5-diamine] | 0.1 to 1 µM
N#Cc1ccc2c(-c3cncc4cnc(N[C@@H]5CCCC[C@@H]5N)nc34)c[nH]c2c1 [Compound A45, 3-[2-((1R,2S)-2-Amino-cyclohexylamino)-pyrido[4,3-d]pyrimidin-8-yl]-1H-indole-6-carbonitrile] | < 0.1 µM
N#Cc1cnc(N)c2cnc(N[C@H]3CCCC[C@H]3N)nc12 (relative stereo) [Compound A9, 5-Amino-2-(cis2-amino-cyclohexylamino)-pyrido[4,3-d]pyrimidine-8-carbonitrile] | 1 to 50 µM
COc1cccc(C#Cc2cncc3cnc(N[C@H]4CCCC[C@H]4N)nc23)c1 (stereo in doubt) [Compound A35, (1S,2R)-N-[8-(3-Methoxy-phenylethynyl)-pyrido[4,3-d]pyrimidin-2-yl]-cyclohexane-1,2-diamine] | 0.1 to 1 µM
Cc1ncc(-c2c[nH]c3cc(C#N)ccc23)c2nc(N[C@H]3CCCC[C@H]3N)ncc12 (relative stereo) [Compound A85, 3-[2-((cis)-2-amino-cyclohexylamino)-5-methyl-pyrido[4,3-d]pyrimidin-8-yl]-1H-indole-6-carbonitrile] | 0.1 to 1 µM
COC[C@H](N)CNc1ncc2cncc(-c3cccc(C)c3)c2n1 [Compound A30, (R)-3-Methoxy-N1-(8-m-tolyl-pyrido[4,3-d]pyrimidin-2-yl)-propane-1,2-diamine] | 1 to 50 µM
Cc1ncc(-c2c[nH]c3cc(C(F)(F)F)ccc23)c2nc(N[C@@H]3CCCC[C@@H]3N)ncc12 (single isomer, unassigned) [Compound A88] | 1 to 50 µM
COC[C@H](N)CNc1ncc2c(N)ncc(-c3cnn(C)c3)c2n1 [Compound A20, N2-((R)-2-Amino-3-methoxy-propyl)-8-(1-methyl-1H-pyrazol-4-yl)-pyrido[4,3-d]pyrimidine-2,5-diamine] | 0.1 to 1 µM
Nc1ncc(-c2c[nH]c3ccccc23)c2nc(N[C@H]3CCCC[C@H]3N)ncc12 (relative stereo) [Compound A24, N2-(cis-2-Amino-cyclohexyl)-8-(1H-indol-3-yl)-pyrido[4,3-d]pyrimidine-2,5-diamine] | < 0.1 µM
CC1(C)CCOc2cc(-c3cncc4cnc(N[C@@H]5CCCC[C@@H]5N)nc34)ccc21 [Compound A29] | 1 to 50 µM
N[C@@H]1CCCC[C@@H]1Nc1ncc2cncc(-c3c[nH]c4ccccc34)c2n1 (stereo in doubt) [Compound A27, (1S,2R)-N-[8-(1H-Indol-3-yl)-pyrido[4,3-d]pyrimidin-2-yl]-cyclohexane-1,2-diamine] | < 0.1 µM
N#Cc1ccc2c(-c3cncc4cnc(NC5CCCCC5)nc34)c[nH]c2c1 [Compound A80, 3-(2-cyclohexylamino-pyrido[4,3-d]pyrimidin-8-yl)-1H-indole-6-carbonitrile] | 1 to 50 µM
N[C@H]1CCCC[C@H]1Nc1ncc2cncc(-c3ccc4[nH]c(=O)[nH]c4c3)c2n1 [Compound A37, 5-[2-((1R,2S)-2-Amino-cyclohexylamino)-pyrido[4,3-d]pyrimidin-8-yl]-1,3-dihydro-benzimidazol-2-one] | 1 to 50 µM
NC(=O)c1ccc2c(-c3cncc4cnc(N[C@@H]5CCCC[C@@H]5N)nc34)c[nH]c2c1 [Compound A77, 3-[2-((1R,2S)-2-amino-cyclohexylamino)-pyrido[4,3-d]pyrimidin-8-yl]-1H-indole-6-carboxylic acid amide] | < 0.1 µM
COc1ccc2[nH]c(-c3cnc(N)c4cnc(N[C@@H]5CCCC[C@@H]5N)nc34)cc2c1 (relative stereo) [Compound A19, N2-(cis-2-Amino-cyclohexyl)-8-(5-methoxy-1H-indol-2-yl)-pyrido[4,3-d]pyrimidine-2,5-diamine] | < 0.1 µM
Nc1ncc(-c2cc3ccccc3[nH]2)c2nc(N[C@@H]3CCCC[C@@H]3N)ncc12 (relative stereo) [Compound A10, N2-(cis-2-Amino-cyclohexyl)-8-(1H-indol-2-yl)-pyrido[4,3-d]pyrimidine-2,5-diamine] | < 0.1 µM
CN1CN(c2ncc3c(N)ncc(-c4cnn(C)c4)c3n2)[C@@H]2CCCC[C@@H]21 (single isomer, unassigned) [Compound A11, 2-((cis)-3-Methyl-octahydro-benzoimidazol-1-yl)-8-(1-methyl-1H-pyrazol-4-yl)-pyrido[4,3-d]pyrimidin-5-ylamine] | 1 to 50 µM
COC[C@H](N)CNc1ncc2cncc(-c3c[nH]c4cc(C(F)(F)F)ccc34)c2n1 [Compound A61, (2R)-3-Methoxy-N1-[8-[6-(trifluoromethyl)-1H-indol-3-yl]pyrido[4,3-d]pyrimidin-2-yl]propane-1,2-diamine] | 1 to 50 µM
NC1CCCCC1Nc1ncc2cncc(-c3c[nH]c4c(F)cccc34)c2n1 (stereo not drawn) [Compound A63, cis-N2-[8-(7-Fluoro-1H-indol-3-yl)pyrido[4,3-d]pyrimidin-2-yl]cyclohexane-1,2-diamine] | < 0.1 µM
Cn1cc(-c2cnc(N)c3cnc(N[C@H]4CCCC[C@H]4N)nc23)cn1 (single isomer, unassigned) [Compound A4, N2-((cis)-2-Amino-cyclohexyl)-8-(1-methyl-1H-pyrazol-4-yl)-pyrido[4,3-d]pyrimidine-2,5-diamine] | 1 to 50 µM
N[C@H]1COCC[C@H]1Nc1ncc2cncc(-c3c[nH]c4ccccc34)c2n1 [Compound A68, (3R,4R)-N4-[8-(1H-Indol-3-yl)-pyrido[4,3-d]pyrimidin-2-yl]-tetrahydro-pyran-3,4-diamine] | < 0.1 µM
CC(C)Cn1cc(-c2cnc(N)c3cnc(N[C@H]4CCCC[C@H]4N)nc23)cn1 (relative stereo) [Compound A8, N2-(cis-2-Amino-cyclohexyl)-8-(1-isobutyl-1H-pyrazol-4-yl)-pyrido[4,3-d]pyrimidine-2,5-diamine] | 0.1 to 1 µM
